How the values were obtained:
[1] = test system: H3K27me3 mark in HeLa cells (EZH2); assay: H3K27me3 Alpha Hela Assay (AlphaLISA); assay type: cell-based; settings: Homo sapiens, HeLa, HeLa cell assay; Table 3 classes; read-out: EC50 Cellular Activity
Procedure, shortened: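 HeLa cells (1,000/well) treated with ten 3-fold compound doses for 72 h at 37 °C; lysates extracted and H3K27me3 detected by AlphaLISA with anti-K27me3 acceptor beads, biotinylated anti-H3 (3 nM) and streptavidin donor beads. EC50 from DMSO-normalized dose-response curves; duplicate plate assessed viability.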

[2] = target: PRC2 containing wt EZH2 (Homo sapiens (Human), UniProt Q15910); assay: EZH2 residence time assay (100-fold dilution of pre-formed enzyme-inhibitor complex); assay type: biochemical
Procedure: EZH2 residence time assay: Compound residence times were assessed by monitoring the recovery of enzyme activity following a 100-fold dilution of pre-formed enzyme-inhibitor complex (dilution reaction), and comparing it to the activity of an undiluted control with the same final concentrations of all reagents (control reaction). Enzyme activity was measured by incorporation of ^3H-SAM into a biotinylated H3 peptide. […] For the control reaction, 0.202 nM PRC2 was pre-incubated with 1 μM activating peptide, 1.01 μM SAM, 1.01 μM ^3H-SAM, and compound at 6.06 times its Ki for 2 h in 138.6 μL of buffer, then the reaction was initiated by the addition of 1.4 μL 500 μM substrate peptide in water. Reactions were quenched at various time points spanning up to 10 hours, by transferring 8 μL aliquots from the reaction vessel to a plate containing 8 μL per well of STOP solution (50 mM Tris pH 8.5, 200 mM EDTA, 2 mM SAH). After the last time point, 12 μL of the quenched solutions were transferred to a streptavidin coated FlashPlate (PerkinElmer) containing 40 μL per well of STOP solution, incubated 1-8 h, washed, and read in a TopCount plate reader (PerkinElmer). A custom script was used to fit control reaction progress data to a straight line and dilution reaction progress data:
Where y is the product formed, t is the reaction time, vi is the initial velocity, vs is the steady state velocity, and kobs is the rate constant for the transition from the initial velocity phase of the curve to the steady state velocity phase of the curve. In fitting the dilution reaction progress data, vs was constrained to the slope of the line fitted to the control reaction progress data. The fitted value of kobs was then transformed into residence time:
Where τ is residence time, Ki is the inhibition constant, [EI] is the calculated equilibrium concentration of enzyme-inhibitor complex, [E] is the calculated equilibrium concentration of free enzyme, and [I] is the calculated equilibrium concentration of free inhibitor.

Chain of PRC2 containing wt EZH2 (Q15910 whole entry): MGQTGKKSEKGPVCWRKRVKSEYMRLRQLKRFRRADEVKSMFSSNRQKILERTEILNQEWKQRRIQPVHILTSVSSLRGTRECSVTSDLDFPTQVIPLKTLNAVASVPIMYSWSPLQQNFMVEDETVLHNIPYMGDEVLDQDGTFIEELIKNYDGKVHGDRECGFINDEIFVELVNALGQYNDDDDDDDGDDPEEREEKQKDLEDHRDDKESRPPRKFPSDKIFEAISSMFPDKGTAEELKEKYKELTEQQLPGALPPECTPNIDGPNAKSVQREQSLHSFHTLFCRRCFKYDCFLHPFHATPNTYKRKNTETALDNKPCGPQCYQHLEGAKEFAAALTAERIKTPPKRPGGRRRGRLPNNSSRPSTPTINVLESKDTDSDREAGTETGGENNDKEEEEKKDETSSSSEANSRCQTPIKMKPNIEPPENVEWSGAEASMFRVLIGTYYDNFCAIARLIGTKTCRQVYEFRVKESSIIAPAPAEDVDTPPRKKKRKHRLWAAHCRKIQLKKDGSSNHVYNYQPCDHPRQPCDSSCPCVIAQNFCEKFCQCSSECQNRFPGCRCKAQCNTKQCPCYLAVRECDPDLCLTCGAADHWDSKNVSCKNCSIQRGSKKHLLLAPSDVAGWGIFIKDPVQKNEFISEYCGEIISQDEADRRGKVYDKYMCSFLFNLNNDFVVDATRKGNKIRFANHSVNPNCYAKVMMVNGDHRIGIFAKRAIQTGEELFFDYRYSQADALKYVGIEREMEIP
Chain of PRC2 containing wt EZH2 (O75530 whole entry partner): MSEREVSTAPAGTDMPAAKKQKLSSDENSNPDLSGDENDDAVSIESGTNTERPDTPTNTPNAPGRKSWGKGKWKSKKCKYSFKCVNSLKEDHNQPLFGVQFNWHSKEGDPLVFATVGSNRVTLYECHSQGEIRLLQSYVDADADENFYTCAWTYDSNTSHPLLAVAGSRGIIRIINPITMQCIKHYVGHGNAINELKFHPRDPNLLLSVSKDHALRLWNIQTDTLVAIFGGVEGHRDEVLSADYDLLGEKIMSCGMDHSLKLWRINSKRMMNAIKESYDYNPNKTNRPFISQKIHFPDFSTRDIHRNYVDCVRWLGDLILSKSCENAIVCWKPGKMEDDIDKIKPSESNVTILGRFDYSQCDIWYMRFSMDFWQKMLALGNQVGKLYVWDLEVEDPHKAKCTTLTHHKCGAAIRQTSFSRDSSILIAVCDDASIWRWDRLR
Chain of PRC2 containing wt EZH2 (Q15022 whole entry partner): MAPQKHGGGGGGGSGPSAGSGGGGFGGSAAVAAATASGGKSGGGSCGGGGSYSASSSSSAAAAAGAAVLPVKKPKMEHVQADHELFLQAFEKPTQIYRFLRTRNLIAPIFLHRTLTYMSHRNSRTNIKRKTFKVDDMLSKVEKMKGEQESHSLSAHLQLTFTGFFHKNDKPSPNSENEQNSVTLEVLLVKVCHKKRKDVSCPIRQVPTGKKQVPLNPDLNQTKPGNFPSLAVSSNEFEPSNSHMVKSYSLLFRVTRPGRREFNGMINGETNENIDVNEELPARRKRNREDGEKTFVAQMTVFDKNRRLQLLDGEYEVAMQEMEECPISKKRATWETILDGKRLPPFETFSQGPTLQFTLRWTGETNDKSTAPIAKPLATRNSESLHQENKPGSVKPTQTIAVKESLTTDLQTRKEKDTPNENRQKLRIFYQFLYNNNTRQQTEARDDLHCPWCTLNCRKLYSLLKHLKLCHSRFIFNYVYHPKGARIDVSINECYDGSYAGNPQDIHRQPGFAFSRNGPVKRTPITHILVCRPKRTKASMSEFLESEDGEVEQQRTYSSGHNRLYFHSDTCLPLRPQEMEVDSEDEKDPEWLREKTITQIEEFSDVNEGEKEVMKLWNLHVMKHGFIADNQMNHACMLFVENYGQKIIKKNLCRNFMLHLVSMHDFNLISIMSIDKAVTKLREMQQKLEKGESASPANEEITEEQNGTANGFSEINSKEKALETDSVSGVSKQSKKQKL
Chain of PRC2 containing wt EZH2 (Q09028 whole entry partner): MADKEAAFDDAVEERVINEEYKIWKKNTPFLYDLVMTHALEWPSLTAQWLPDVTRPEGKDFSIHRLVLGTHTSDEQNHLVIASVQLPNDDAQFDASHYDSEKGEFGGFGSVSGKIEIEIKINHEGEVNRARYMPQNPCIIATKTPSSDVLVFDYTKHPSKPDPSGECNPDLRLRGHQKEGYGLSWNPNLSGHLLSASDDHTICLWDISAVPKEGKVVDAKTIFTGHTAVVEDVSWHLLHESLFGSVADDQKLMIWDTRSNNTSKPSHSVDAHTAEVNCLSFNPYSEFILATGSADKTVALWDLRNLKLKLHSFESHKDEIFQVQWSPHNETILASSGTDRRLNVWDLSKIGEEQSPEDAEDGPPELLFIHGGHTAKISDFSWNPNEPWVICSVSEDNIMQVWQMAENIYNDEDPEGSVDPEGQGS
Chain of PRC2 containing wt EZH2 (Q6ZN18 whole entry partner): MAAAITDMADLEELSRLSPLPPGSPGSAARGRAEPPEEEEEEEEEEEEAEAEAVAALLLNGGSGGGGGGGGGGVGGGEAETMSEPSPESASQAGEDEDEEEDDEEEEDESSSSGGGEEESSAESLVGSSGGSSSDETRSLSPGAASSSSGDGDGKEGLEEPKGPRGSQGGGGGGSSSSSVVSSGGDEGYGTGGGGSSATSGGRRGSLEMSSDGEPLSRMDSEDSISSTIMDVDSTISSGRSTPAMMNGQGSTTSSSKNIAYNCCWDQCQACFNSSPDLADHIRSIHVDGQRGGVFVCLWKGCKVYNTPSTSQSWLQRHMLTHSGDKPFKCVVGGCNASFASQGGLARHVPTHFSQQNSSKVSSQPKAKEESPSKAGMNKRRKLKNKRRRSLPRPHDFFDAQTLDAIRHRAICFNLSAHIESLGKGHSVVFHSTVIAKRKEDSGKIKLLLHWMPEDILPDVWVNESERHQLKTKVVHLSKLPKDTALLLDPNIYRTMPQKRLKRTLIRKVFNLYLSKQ

Compound	EC50 [1] [nM]	residence time [2] [min]
CSc1cc(C)[nH]c(=O)c1CNC(=O)c1c(C)n([C@H](C)C23CC(NC4COC4)(C2)C3)c2ccccc12 [drawing 234]	< 5	300 to 2100
CSc1cc(C)[nH]c(=O)c1CNC(=O)c1c(C)n([C@H](C)C23CC(N(C)CC(F)(F)F)(C2)C3)c2ccccc12 [drawing 237]	5 to 25	300 to 2100
CSc1cc(C)[nH]c(=O)c1CNC(=O)c1c(C)n([C@H](C)C2CCN(CC(C)(C)O)CC2)c2ccccc12 [drawing 240]	25 to 125	300 to 2100
CSc1cc(C)[nH]c(=O)c1CNC(=O)c1c(C)n([C@H](C)C2CCN(CC(F)(F)F)CC2)c2ccccc12 [drawing 243]	< 5	300 to 2100
CSc1cc(C)[nH]c(=O)c1CNC(=O)c1c(C)n([C@H](C)C2CCOCC2)c2ccccc12 [drawing 247]	< 5	30 to 300
CSc1cc(C)[nH]c(=O)c1CNC(=O)c1c(C)n([C@H](C)C2CCN(C3CC3)CC2)c2ncccc12 [drawing 256]	< 5	300 to 2100
COC1CN(C2CCC([C@@H](C)n3c(C)c(C(=O)NCc4c(SC5CC5)cc(C)[nH]c4=O)c4ccccc43)CC2)C1 (some centres unmarked) [drawing 264]	5 to 25	300 to 2100
CCSc1cc(C)[nH]c(=O)c1CNC(=O)c1c(C)n([C@H](C)C2CCN(CC(F)(F)F)CC2)c2ccccc12 [drawing 265]	25 to 125	< 30
Cc1cc(SC(F)F)c(CNC(=O)c2c(C)n([C@H](C)C3CCN(CC(F)(F)F)CC3)c3ccccc23)c(=O)[nH]1 [drawing 266]	25 to 125	< 30
Cc1cc(SC2CCC2)c(CNC(=O)c2c(C)n([C@H](C)C3CCN(CC(F)(F)F)CC3)c3ccccc23)c(=O)[nH]1 [drawing 267]	25 to 125	30 to 300
